We go through ten molecules from US9359383B2, “β-ketoimine ligand, method of preparing the same, metal complex comprising the same and method of forming thin film using the same” (SAMSUNG ELECTRONICS CO., LTD., priority 2011, dated 2016).

Data set [1] in a line: Purification by distillation under reduced pressure (thermal stability). The data set is classed as physicochemical. The following applies: distillation at 30-50 Pa and 200-220° C. As for the experimental part:
Strontium complex compounds of Comparative Examples 1 to 8 were prepared using the β-ketoimine ligands, obtained in Synthesis Examples 4 to 11, in the same manner as Example 1. Purification of the strontium complex compounds of Comparative Examples 3, 4, 5, 6 and 8, which could be distilled, was carried out at a pressure of 30-50 Pa and a temperature of 200˜220° C. […] The strontium complex compounds of Comparative Examples 1 to 8 were analyzed in the same manner as Examples 1 to 3, thereby determining the chemical structures thereof.

Data set [2] can be described thus: Evaluation of solubility in organic solvent (Test Example 2). Format: physicochemical. Particulars: 0.1-0.7 mol added to 1000 ml solvent, sealed, stood 24 hours, visual observation. As for the experimental part:
For the strontium complex compounds of Examples 1 to 3 and Comparative Examples 2 to 8, the solubilities of the complex compounds in ethyl cyclohexane, diethyl glycol dimethyl ether and toluene were evaluated. The evaluation was performed by adding 0.1-0.7 mol of each of the strontium complex compounds to 1000 ml of each of the organic solvents, sealing the mixtures, allowing the mixtures to stand for 24 hours, and visually observing whether a solid occurred in the mixtures. […] In Table 3, the case in which the complex compound was dissolved at a concentration of less than 0.1 mol was indicated as “x”.

The nature of data set [3]: Thermal stability by TGA (Test Example 3). Format: physicochemical. Particulars: dry argon 100 ml/min, heating rate 10° C./min, sample 7-12 mg. The method, then:
(§1) The strontium complex compounds of Examples 1 to 3 and Comparative Examples 5 to 8 were measured for thermal stability by TGA and DSC. The TGA measurement was carried out under the following conditions: dry argon flow rate: 100 ml/min; heating rate: 10° C./min; and a sample amount of 7-12 mg. The DSC measurement was carried out by injecting a sample into a closed metal container in a glove box in a dry argon atmosphere and heating the sample container at a rate of 10° C./min, in which the amount of the sample was 1-4 mg. In the TGA measurement, sampling and measurement were carried out in the glove box in the dry argon atmosphere.

The nature of data set [4]: Thermal stability by DSC (Test Example 3). The data set is classed as physicochemical. Particulars: closed metal container, dry argon, heating rate 10° C./min, sample 1-4 mg. As for the experimental part: as §1

Regarding `COCC[N+]1=C(C)C=C(C(C)(C)C)[O][Sr-2]12[O]C(C(C)(C)C)=CC(C)=[N+]2CCOC` [Comparative Example 1], the “thermal stability (could not be purified by distillation)” value in data set [1] was “low thermal stability”.

With `CC1=[N+](CCN(C)C)[Sr-2]2([O]C(C(C)(C)C)=C1)[O]C(C(C)(C)C)=CC(C)=[N+]2CCN(C)C` [Comparative Example 2], in data set [2], the “concentration of the strontium complex compound in the transparent liquid in which no solid was present, Diethylene glycol dimethyl ether” value is 0.3 mol; the “concentration of the strontium complex compound in the transparent liquid in which no solid was present, Ethyl cyclohexane” value was “X (the case in which the complex compound was dissolved at a concentration of less than 0.1 mol was indicated as “x”)”; the “concentration of the strontium complex compound in the transparent liquid in which no solid was present, Toluene” value was 0.3 mol. Further, the “thermal stability (could not be purified by distillation)” value in data set [1] is “low thermal stability”.

Take `CC(C)C1=[N+](C(C)CN(C)C)[Sr-2]2([O]C(C(C)(C)C)=C1)[O]C(C(C)(C)C)=CC(C(C)C)=[N+]2C(C)CN(C)C` (stereo not drawn) [Comparative Example 4]: in data set [2], the “concentration of the strontium complex compound in the transparent liquid in which no solid was present, Diethylene glycol dimethyl ether” value was determined as 0.4 mol; the “concentration of the strontium complex compound in the transparent liquid in which no solid was present, Ethyl cyclohexane” value is listed as 0.3 mol; the “concentration of the strontium complex compound in the transparent liquid in which no solid was present, Toluene” value is 0.7 mol.

Regarding `COCCCC1=[N+](CCCN(C)C)[Sr-2]2([O]C(C(C)(C)C)=C1)[O]C(C(C)(C)C)=CC(CCCOC)=[N+]2CCCN(C)C` [Comparative Example 5], the “Remaining amount (wt % at 400 ° C.)” value in data set [3] stood at 26.2 wt %. For the same molecule, in data set [2], the “concentration of the strontium complex compound in the transparent liquid in which no solid was present, Diethylene glycol dimethyl ether” value worked out at 0.4 mol; the “concentration of the strontium complex compound in the transparent liquid in which no solid was present, Ethyl cyclohexane” value is “X (the case in which the complex compound was dissolved at a concentration of less than 0.1 mol was indicated as “x”)”; the “concentration of the strontium complex compound in the transparent liquid in which no solid was present, Toluene” value is listed as 0.1 mol. The “Decomposition peak top temperature (° C.)” value in data set [4] amounted to 336.8 °C.

Turning to `COCC(C)[N+]1=C(C(C)C)C=C(C(C)(C)COC)[O][Sr-2]12[O]C(C(C)(C)COC)=CC(C(C)C)=[N+]2C(C)COC` (stereo not drawn) [Comparative Example 6], the “Remaining amount (wt % at 400 ° C.)” value in data set [3] amounted to 3.7 wt %. Also, in data set [2], the “concentration of the strontium complex compound in the transparent liquid in which no solid was present, Diethylene glycol dimethyl ether” value turned out to be 0.4 mol; the “concentration of the strontium complex compound in the transparent liquid in which no solid was present, Ethyl cyclohexane” value is 0.5 mol; the “concentration of the strontium complex compound in the transparent liquid in which no solid was present, Toluene” value is reported as 0.4 mol. The “Decomposition peak top temperature (° C.)” value in data set [4] was 363.0 °C.

As to `COCC(C)(C)C1=CC(C(C)C)=[N+](CCN(C)C)[Sr-2]2([O]1)[O]C(C(C)(C)COC)=CC(C(C)C)=[N+]2CCN(C)C` [Comparative Example 7], in data set [3], the “Remaining amount (wt % at 400 ° C.)” value was found to be 10.2 wt %. Besides, in data set [2], the “concentration of the strontium complex compound in the transparent liquid in which no solid was present, Diethylene glycol dimethyl ether” value came out at 0.2 mol; the “concentration of the strontium complex compound in the transparent liquid in which no solid was present, Ethyl cyclohexane” value amounted to 0.3 mol; the “concentration of the strontium complex compound in the transparent liquid in which no solid was present, Toluene” value turned out to be 0.3 mol. Also, the “Decomposition peak top temperature (° C.)” value in data set [4] was 337.5 °C. In addition, the “thermal stability (could not be purified by distillation)” value in data set [1] is “low thermal stability”.

With `COCCC(C)(C)C1=CC(C(C)C)=[N+](C(C)CN(C)C)[Sr-2]2([O]1)[O]C(C(C)(C)CCOC)=CC(C(C)C)=[N+]2C(C)CN(C)C` (stereo not drawn) [Comparative Example 8], the “Remaining amount (wt % at 400 ° C.)” value in data set [3] amounted to 3.97 wt %. Besides, in data set [2], the “concentration of the strontium complex compound in the transparent liquid in which no solid was present, Diethylene glycol dimethyl ether” value was “X (the case in which the complex compound was dissolved at a concentration of less than 0.1 mol was indicated as “x”)”; the “concentration of the strontium complex compound in the transparent liquid in which no solid was present, Ethyl cyclohexane” value is recorded as “X (the case in which the complex compound was dissolved at a concentration of less than 0.1 mol was indicated as “x”)”; the “concentration of the strontium complex compound in the transparent liquid in which no solid was present, Toluene” value was 0.1 mol. Also, the “Decomposition peak top temperature (° C.)” value in data set [4] stood at 368.2 °C.

As to `COCC(C)(C)C1=[O+][Sr-4]234([O+]=C(C(C)(C)COC)C=C(C(C)C)[N]2C(C)C[N+]3(C)C)[N](C(C(C)C)=C1)C(C)C[N+]4(C)C` (stereo not drawn) [Example 1], the melting point is 140 to 141 °C. Besides, the “Remaining amount (wt % at 400 ° C.)” value in data set [3] is 0.61 wt %. In data set [2], the “concentration of the strontium complex compound in the transparent liquid in which no solid was present, Diethylene glycol dimethyl ether” value came out at 0.7 mol; the “concentration of the strontium complex compound in the transparent liquid in which no solid was present, Ethyl cyclohexane” value stood at 0.7 mol; the “concentration of the strontium complex compound in the transparent liquid in which no solid was present, Toluene” value was determined as 0.7 mol. Besides, the “Decomposition peak top temperature (° C.)” value in data set [4] was determined as 382.4 °C.

Regarding `CCOCC(C)(C)C(=O)C=C(C(C)C)[N]([Sr][N](C(=CC(=O)C(C)(C)COCC)C(C)C)C(C)CN(C)C)C(C)CN(C)C` (stereo not drawn) [Example 2], the “Remaining amount (wt % at 400 ° C.)” value in data set [3] is reported as 1.40 wt %. Also, in data set [2], the “concentration of the strontium complex compound in the transparent liquid in which no solid was present, Diethylene glycol dimethyl ether” value was determined as 0.7 mol; the “concentration of the strontium complex compound in the transparent liquid in which no solid was present, Ethyl cyclohexane” value came to 0.6 mol; the “concentration of the strontium complex compound in the transparent liquid in which no solid was present, Toluene” value turned out to be 0.7 mol. Moreover, the “Decomposition peak top temperature (° C.)” value in data set [4] was determined as 360.7 °C.

Take `CCC(C)C(=CC(=O)C(C)(C)COC)[N]([Sr][N](C(=CC(=O)C(C)(C)COC)C(C)CC)C(C)CN(C)C)C(C)CN(C)C` (stereo not drawn) [Example 3]: the “Remaining amount (wt % at 400 ° C.)” value in data set [3] stood at 0.87 wt %. Besides, in data set [2], the “concentration of the strontium complex compound in the transparent liquid in which no solid was present, Diethylene glycol dimethyl ether” value is recorded as 0.7 mol; the “concentration of the strontium complex compound in the transparent liquid in which no solid was present, Ethyl cyclohexane” value is given as 0.7 mol; the “concentration of the strontium complex compound in the transparent liquid in which no solid was present, Toluene” value stood at 0.7 mol. For the same molecule, the “Decomposition peak top temperature (° C.)” value in data set [4] is 393.2 °C.
